Laboratory results as given in paper PMC11783601, “Analogue-Sensitive Inhibition of Histone Demethylases Uncovers Member-Specific Function in Ribosomal Protein Synthesis” (Journal of the American Chemical Society, 2025).
Entries after “also recorded” stand apart in the source; their conditions may differ. Where two headings read alike, the source gives them in different places.

Legend:
KDM4D-F189A = biological target: T1, KDM4D-F189A (Homo sapiens, UniProt Q6B0I6, F189A); experiment: MALDI-MS demethylase assay on H3K9me3 peptide; assay type: biochemical; settings: 50 µM (Fig S15)
T1 construct: human KDM4B and KDM4D jmjC catalytic domain for bacterial; Strep II (N); made in house; host or cells: E. coli Rosetta [DE3]
Protocol: (§1) We next tested the inhibitory potential of 6 against these proteins using H3K9me3 peptide substrate and analyzed it by MALDI-MS. […] We subsequently examined the ability of asKDM4 variants to demethylate full-length histones extracted from mammalian cells. HEK293T cells were cultured in the presence of 10 μM n-octyl IOX1, a broad-spectrum inhibitor of demethylases,[41],[42] to generate a hypermethylated proteome (Figure S19). The extracted histone was incubated with the as variants individually, each with or without 6, and the extent of demethylation was analyzed by Western blot using the H3K9me3-specific antibody. […]
(§2) assay (Biorad) kit with BSA concentrations as a standard. […]
(§3) 8. Demethylase activity of the wild type and mutant KDM4 proteins on peptide substrate To monitor enzymatic activity, a demethylase activity assay was optimized and then observed through MALDI-TOF.7 Each histone demethylase assay sample included either wild type or mutant enzyme (10µM KDM4A, 7.5µM KDM4C, 10µM KDM4D, or 1µM KDM4E), 10 µM peptide, 200 µM 2OG, 50 mM Tris pH 8, […], 0-200µM NOG analogue, and 2 mM L-ascorbic acid with a total assay volume of 10 µL. Fe(II) supplement and L-ascorbic acid […]
(§4) Lastly, the 2OG and peptide were […]
(§5) positive mode and analyzed on Bruker FlexAnalysis software. The percent demethylated peptide […]
(§6) the multiple demethylation events on the peptide. […]

wild type KDM4D = biological target: T2, wild type KDM4D (Homo sapiens, UniProt Q6B0I6); experiment: MALDI-MS demethylase assay on H3K9me3 peptide; assay type: biochemical
T2 construct: human KDM4B and KDM4D jmjC catalytic domain for bacterial; Strep II (N); made in house; host or cells: E. coli Rosetta [DE3]
Protocol: as §1, §2, §3, §4, §5, §6

wild type KDM4E = biological target: T3, wild type KDM4E (Homo sapiens, UniProt B2RXH2); experiment: MALDI-MS demethylase assay on H3K9me3 peptide; assay type: biochemical
T3 construct: we recombinantly expressed the catalytic domains of 12 wild type dioxygenases, in addition to KDM4A-E; 6xHis (N); host or cells: E. coli BL21 (DE3)
Protocol: as §1, §2, §3, §4, §5, §6

wild type KDM4C = biological target: T4, wild type KDM4C (Homo sapiens, UniProt Q9H3R0); experiment: MALDI-MS demethylase assay on H3K9me3 peptide; assay type: biochemical
T4 construct: 6xHis-tagged human KDM4C catalytic domain construct; 6xHis (N); made in house; host or cells: E. coli BL21 [DE3] star
Protocol: as §1, §2, §3, §4, §5, §6

[1] = biological target: T5, full-length wild type KDM4D (Homo sapiens, UniProt Q6B0I6); experiment: H3K9me3 Western blot of nuclear extracts of transfected HEK293T cells; assay type: cell-based
T5 construct: HEK293T cells were transfected with full-length wild type KDM4B-E or their respective mutants; host or cells: HEK293T
Description: (§7) KDM4B and C are structurally homologous to KDM4A, and KDM4D and E have a catalytic pocket near-identical to that of KDM4A but lack the Tudor and PHD domains known to bind trimethylated lysine in histones (Figure 1B).[11] HEK293T cells were transfected with full-length wild type KDM4B-E or their respective mutants. Western blot analysis of nuclear preparations using the H3K9me3 antibody confirmed all of the proteins to be catalytically active (Figures 4G–N and S32–S35).
(§8) KDM4A mammalian expression plasmid in CMV vector was purchased from Addgene (plasmid #24180). KDM4B mammalian expression plasmid in CMV vector was purchased from Addgene (plasmid #24181). KDM4C mammalian expression plasmid in CMV vector was purchased from Addgene (plasmid #24214). KDM4D mammalian expression plasmid in pReciever vector was purchased from Genecopoia (EX-Z0917-M06.) KDME mammalian expression plasmid in pRP-EXP was designed from Vector Builder. The KDM4A-F185A, KDM4B-F186A, KDM4C -F187A, KDM4D-F189A, and KDM4E F186A mutants were generated using Quikchange Lightening Mutagenesis Kit (Agilent) according to manufacturer’s protocol and confirmed by Sanger […]
(§9) HEK293T/17 cells (ATCC) were grown in Delbucco’s Modified Eagle Medium (DMEM) (Corning) with 10% FBS at 37 °C (Corning), 5% CO2, and 95% relative humidity in a 6-well cell culture plate. When cells reached 90% confluency, 3 µg of plasmid and 6 µg lipofectamine 2000 (Invitrogen: 11668019) were incubated with 100 µL OptiMem. After 5 minutes the plasmid and lipofectamine were combined and incubated at room temperature for 20 minutes and added to the cell culture disk. Cells were returned to the incubator to grow for 4-6 hours. This was followed by treatment of compound treatment (n-octyl IOX121,22 or a specific NOG ester) at indicated concentrations and further culture for specified time. The media was removed, and cells were washed with ice cold PBS (Corning), then trypsinized with TrpLE Express (Gibco). The trypsinization reaction was quenched with DMEM 10% FBS and cells were pelleted then washed once with ice cold PBS. The nuclear extracts were generated by first resuspending the cell pellets in 700 µL nuclear isolation buffer (15 mM Tris pH 7.5, 60 mM KCl, 15 mM NaCl, 5 mM MgCl2, 1 mM CaCl2, 1mm DTT, 2 mM Na3Van, 250 mM sucrose, 1X Pierce protease inhibitor (Thermo Fisher #PIA32955), 1 mM PMSF, 0.3% NP40 diluted to volume with MilliQ H2O) and incubated on ice for 5 minutes.23 The samples were then pelleted by centrifugation at 2000 rcf for 5 minutes.
(§10) The supernatant was removed, and the pelleted nuclei were resuspended in 200 µL Pierce IP lysis buffer (Thermo Fisher #87787) containing 1X Pierce protease inhibitor and left on ice for 5 minutes. The nuclei were then sonicated at 100% amp for 5 minutes (pulsed 1 minute “on”, 20 seconds “rest”) using a Qsonica-Q700, cuphorn sonicator. The samples were pelleted once again at 2000 rcf for 5 minutes and the supernatant containing the nuclear extracts were collected. MgCl2 (1M) solution was added to each sample give a final concentration of 6mM. […]
(§11) Prism with the corresponding bars representing the mean and standard deviation of the population.
(§12) For the time dependent imaging, cells containing the transfected KDM4A mutant were identified by their HA signal. These cells were used to create a selection which was then imposed onto the respective H3K9me3 or BrdU images. The mean signal was then measured for H3K9me3 or BrdU only within the cells expressing the KDM4A mutant. To compare changes in H3K9me3 or BrdU between trials, the quantification values were normalized to the mean signal at t=0. The normalized, mean signal and error for H3K9me3 or BrdU were then plotted in GraphPad Prism.
(§13) 21. General protocol for Western blotting
(§14) Assay samples were mixed with appropriate volume of 4X Laemmli Dye (Bio-Rad), heated at 95 °C for 5 minutes and loaded onto 4–12% Criterion™ XT Bis-Tris protein gels (Bio-Rad #3450123) or in-house prepared SDS-polyacrylamide gel and subjected to electrophoresis […]

[2] = biological target: T6, full-length wild type KDM4B (Homo sapiens, UniProt O94953); experiment: as above; assay type: cell-based; settings: n-octyl IOX1 10 μM
T6 construct: HEK293T cells were transfected with full-length wild type KDM4B-E or their respective mutants; host or cells: HEK293T
Description: as §7, §8, §9, §10, §11, §12, §13, §14

[3] = biological target: T7, full-length wild type KDM4C (Homo sapiens, UniProt Q9H3R0); experiment: as above; assay type: cell-based
T7 construct: HEK293T cells were transfected with full-length wild type KDM4B-E or their respective mutants; host or cells: HEK293T
Description: as §7, §8, §9, §10, §11, §12, §13, §14

T7 sequence (Q9H3R0 whole entry): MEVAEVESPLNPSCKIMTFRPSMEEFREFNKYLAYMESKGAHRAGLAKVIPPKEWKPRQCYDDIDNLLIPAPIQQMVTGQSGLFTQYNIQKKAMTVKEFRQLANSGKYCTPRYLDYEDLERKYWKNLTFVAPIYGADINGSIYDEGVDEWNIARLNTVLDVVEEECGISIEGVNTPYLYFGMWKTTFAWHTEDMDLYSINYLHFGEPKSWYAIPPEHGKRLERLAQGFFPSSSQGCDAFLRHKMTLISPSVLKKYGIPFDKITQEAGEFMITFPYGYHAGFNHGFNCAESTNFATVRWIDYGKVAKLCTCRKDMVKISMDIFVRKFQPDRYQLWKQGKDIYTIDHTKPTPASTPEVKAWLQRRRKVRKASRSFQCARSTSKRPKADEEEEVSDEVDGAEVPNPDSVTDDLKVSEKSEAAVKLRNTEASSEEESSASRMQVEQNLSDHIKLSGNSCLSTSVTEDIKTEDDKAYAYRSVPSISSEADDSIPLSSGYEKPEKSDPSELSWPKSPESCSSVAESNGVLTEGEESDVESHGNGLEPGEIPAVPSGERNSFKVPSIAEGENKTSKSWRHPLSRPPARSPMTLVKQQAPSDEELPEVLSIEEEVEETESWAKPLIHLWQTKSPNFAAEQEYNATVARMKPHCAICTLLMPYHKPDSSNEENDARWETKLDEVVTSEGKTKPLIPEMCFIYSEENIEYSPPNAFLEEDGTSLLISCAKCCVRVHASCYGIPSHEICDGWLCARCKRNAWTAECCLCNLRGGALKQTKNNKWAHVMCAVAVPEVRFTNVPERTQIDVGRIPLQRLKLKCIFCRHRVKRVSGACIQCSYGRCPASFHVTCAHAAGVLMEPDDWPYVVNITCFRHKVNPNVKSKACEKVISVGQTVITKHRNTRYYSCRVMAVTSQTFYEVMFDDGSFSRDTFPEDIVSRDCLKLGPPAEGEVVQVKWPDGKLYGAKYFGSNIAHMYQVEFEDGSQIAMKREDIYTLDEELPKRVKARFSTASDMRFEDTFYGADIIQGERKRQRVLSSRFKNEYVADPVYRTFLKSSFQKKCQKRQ
T6 sequence (O94953 whole entry): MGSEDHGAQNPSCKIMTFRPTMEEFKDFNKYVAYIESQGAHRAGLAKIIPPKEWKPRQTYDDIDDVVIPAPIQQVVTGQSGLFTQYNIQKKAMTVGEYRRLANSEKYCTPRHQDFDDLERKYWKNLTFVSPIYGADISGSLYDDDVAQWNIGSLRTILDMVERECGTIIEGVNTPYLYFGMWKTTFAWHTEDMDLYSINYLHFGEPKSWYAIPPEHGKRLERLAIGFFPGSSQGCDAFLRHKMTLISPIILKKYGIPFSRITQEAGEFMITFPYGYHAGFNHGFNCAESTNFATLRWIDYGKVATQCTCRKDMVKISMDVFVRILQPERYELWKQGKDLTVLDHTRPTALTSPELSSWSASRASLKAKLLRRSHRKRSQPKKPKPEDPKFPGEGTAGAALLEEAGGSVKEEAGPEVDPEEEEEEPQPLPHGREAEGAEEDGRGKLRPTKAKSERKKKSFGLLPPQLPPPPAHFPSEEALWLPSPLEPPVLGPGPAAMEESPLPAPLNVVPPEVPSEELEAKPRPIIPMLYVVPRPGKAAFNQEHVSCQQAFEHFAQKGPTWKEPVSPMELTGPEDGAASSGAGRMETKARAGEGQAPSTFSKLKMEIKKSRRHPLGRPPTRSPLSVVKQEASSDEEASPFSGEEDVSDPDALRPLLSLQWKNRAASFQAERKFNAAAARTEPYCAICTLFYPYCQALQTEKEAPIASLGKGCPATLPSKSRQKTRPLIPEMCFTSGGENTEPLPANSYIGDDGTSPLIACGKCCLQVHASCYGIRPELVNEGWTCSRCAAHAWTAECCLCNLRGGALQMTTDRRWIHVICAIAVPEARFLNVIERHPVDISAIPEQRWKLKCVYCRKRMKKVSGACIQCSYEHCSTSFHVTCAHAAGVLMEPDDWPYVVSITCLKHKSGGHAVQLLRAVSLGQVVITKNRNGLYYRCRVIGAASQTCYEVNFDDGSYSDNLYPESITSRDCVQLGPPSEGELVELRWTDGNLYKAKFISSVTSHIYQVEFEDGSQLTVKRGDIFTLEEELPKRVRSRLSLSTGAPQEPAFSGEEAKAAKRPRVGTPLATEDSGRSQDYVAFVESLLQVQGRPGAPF
T5 sequence (Q6B0I6 whole entry): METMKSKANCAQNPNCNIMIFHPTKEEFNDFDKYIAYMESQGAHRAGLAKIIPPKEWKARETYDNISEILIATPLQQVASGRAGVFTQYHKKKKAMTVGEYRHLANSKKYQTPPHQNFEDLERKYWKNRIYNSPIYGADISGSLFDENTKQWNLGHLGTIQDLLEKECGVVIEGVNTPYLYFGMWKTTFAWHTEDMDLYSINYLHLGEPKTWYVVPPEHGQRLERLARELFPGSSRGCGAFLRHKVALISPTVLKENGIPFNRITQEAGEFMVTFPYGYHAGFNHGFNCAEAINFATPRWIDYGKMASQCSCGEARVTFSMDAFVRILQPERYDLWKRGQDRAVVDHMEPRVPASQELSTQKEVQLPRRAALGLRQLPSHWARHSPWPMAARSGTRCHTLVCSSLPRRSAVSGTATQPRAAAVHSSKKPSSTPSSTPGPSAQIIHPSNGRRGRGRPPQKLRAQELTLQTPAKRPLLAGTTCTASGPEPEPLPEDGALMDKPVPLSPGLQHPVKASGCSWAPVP
T4 sequence (Q9H3R0 144-310 limits assumed): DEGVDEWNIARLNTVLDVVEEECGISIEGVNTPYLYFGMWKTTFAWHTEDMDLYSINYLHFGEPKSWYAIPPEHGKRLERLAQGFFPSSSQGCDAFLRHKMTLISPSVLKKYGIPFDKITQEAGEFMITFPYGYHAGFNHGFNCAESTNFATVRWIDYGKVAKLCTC
T1 sequence (Q6B0I6 146-312 F189A limits assumed): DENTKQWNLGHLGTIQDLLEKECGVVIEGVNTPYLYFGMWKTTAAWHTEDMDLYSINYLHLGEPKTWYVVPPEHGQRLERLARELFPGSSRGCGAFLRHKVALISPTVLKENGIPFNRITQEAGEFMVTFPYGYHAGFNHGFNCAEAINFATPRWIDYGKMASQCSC
T2 sequence (Q6B0I6 146-312 limits assumed): as the sequence (Q6B0I6 146-312 F189A limits assumed) above, with A44F counted along it
T3 sequence (B2RXH2 143-309 limits assumed): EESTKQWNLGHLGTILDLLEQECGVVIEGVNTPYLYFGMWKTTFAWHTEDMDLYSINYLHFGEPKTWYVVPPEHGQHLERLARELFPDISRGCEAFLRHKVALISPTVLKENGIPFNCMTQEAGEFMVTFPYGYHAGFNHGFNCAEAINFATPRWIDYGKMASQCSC

SMILES	inhibition of KDM4D-F189A (KDM4D-F189A)	inhibition of KDM4D-F189A (KDM4D-F189A; listed as NOG 6)	inhibition of wild type KDM4D (wild type KDM4D)	inhibition of wild type KDM4D (wild type KDM4D; listed as NOG 6)	inhibition of wild type KDM4E (wild type KDM4E)	inhibition of wild type KDM4C (wild type KDM4C)	inhibition of wild type KDM4C (wild type KDM4C; listed as NOG 6)	inhibition of wild type KDM4D H3K9me3 demethylation [1]	inhibition of wild type KDM4B H3K9me3 demethylation [2]	inhibition of wild type KDM4C H3K9me3 demethylation [3]
CC(C)CC(NC(=O)C(=O)O)C(=O)O (stereo not shown) [compound 6, N-oxalyl leucine]	significantly inhibited	inhibits the mutant completely	fully refractory	does not inhibit	fully refractory	fully refractory	does not inhibit	–	–	–
CCCCCCCCOC(=O)c1ccc(O)c2ncccc12 [n-octyl IOX1]	–	–	–	–	–	–	–	Dose-dependent inhibition; also recorded: significantly reduced	Dose-dependent inhibition; also recorded: significantly reduced	Dose-dependent inhibition; also recorded: significantly reduced
